Article PMC11638965, “Leveraging Dual-Ligase Recruitment to Enhance Protein Degradation via a Heterotrivalent Proteolysis Targeting Chimera” (Journal of the American Chemical Society, 2024)

Columns and labels:
BRD4^Short = biological target: T1, BRD4^Short (Homo sapiens, UniProt O60885); assay: Western blot dose-response degradation in HEK293 cells; assay type: cell-based; settings: 6 h, mean ± S.E.M. of three experiments, values marked b mean ± S.D. of two
T1 construct: Western blot data for BET, CRBN and VHL protein levels; endogenous in cells; host or cells: HEK293 (ATCC)
Description: (§1) HEK293 cells were obtained from ATCC. HEK293 was cultured in DMEM supplemented with 10% (v/v) fetal bovine serum (FBS), 1% […] and 1% (v/v) penicillin/streptomycin (pen/strep) at 37 °C, 5% CO2, and 95% humidity.
(§2) HEK293 cells were plated at a density of 5 × 10^5 cells per well of a six well plate a day prior to initiation of the experiment. Compounds were dissolved to a 10 mM concentrated stock solution in DMSO from which the compounds were further diluted to a working concentration range of 1 μM to 100 pM in DMEM and was subsequently added to cells at the initiation of the experiment. An additional vehicle control was added to cells alongside compound treatments. Cells were left to incubate with compound for 6 h at 37 °C, 5% CO2, and 95% humidity. Cells were then subsequently washed twice with PBS before being harvested in RIPA buffer supplemented with protease inhibitor cocktail and Benzonase Nuclease before being store at −20 °C.
(§3) Protein concentration was determined using the BCA assay. Samples were then prepared in LDS buffer containing 5% 1 M DTT and subsequently loaded onto NuPAGE 4–12% Bis-Tris Midi gels, followed by the transfer of the proteins onto nitrocellulose membranes. The membranes were blocked for 1 h prior to incubation with the primary antibodies using 5% Milk TBST. Membranes were incubated at 4 °C in either BRD4(Ab128874), BRD3(Ab50818), BRD2(Ab139690), VHL(CST#68547) and CRBN(CST#71810) primary antibody overnight. Following overnight incubation, the membranes were incubated with complementary IRDye 800CW secondary antibody and a hFAB Rhodamine Anti-Tubulin Primary Antibody (loading control) for 1 h and then imaged with a Bio-Rad imager. All Western blots were analyzed for band intensities using Image Lab (Bio-Rad). The data extracted from these blots were then plotted and analyzed using Prism (v. 10.2.2, GraphPad). Linear regression curve fitting was used to calculate pDC50 values. The standard deviation of the pDC50 was calculated for all compounds that had two independent repeats and the standard error of the mean calculated for all compounds that had three independent repeats. All Western blotting figures were developed in Adobe illustrator.

BRD3 [1] = biological target: T2, BRD3 (Homo sapiens, UniProt Q15059); assay: as above; assay type: cell-based; settings: 6 h, mean ± S.E.M. of three experiments, values marked b mean ± S.D. of two
T2 construct: HiBiT, is appended to the N-terminus of endogenous BRD2, BRD3, and BRD4; endogenous in cells
Description: as §1, §2, §3

BRD4^Long = biological target: T3, BRD4^Long (Homo sapiens, UniProt O60885); assay: as above; assay type: cell-based; settings: HEK293 cells, 6 h, Western blot; mean ± S.E.M. of three experiments, values marked b mean ± S.D. of two
T3 construct: Western blot data for BET, CRBN and VHL protein levels; endogenous in cells; host or cells: HEK293 (ATCC)
Description: as §1, §2, §3

BRD2 [2] = biological target: T4, BRD2 (Homo sapiens, UniProt P25440); assay: as above; assay type: cell-based; settings: 6 h, mean ± S.E.M. of three experiments, values marked b mean ± S.D. of two
T4 construct: HiBiT, is appended to the N-terminus of endogenous BRD2, BRD3, and BRD4; endogenous in cells
Description: as §1, §2, §3

BRD2 [3] = biological target: T4, BRD2; assay: Live cell kinetic HiBiT degradation assay, HiBiT-BRD2 HEK293 cells; assay type: cell-based; settings: for DC50: HiBiT-BRD2 CRISPR knock-in HEK293 cells, live cell kinetic degradation, 24 h, read-out: Dmax 50 BRD2; for λmax BRD2 (degradation rate): HiBiT-BRD2 knock-in HEK293 cells
Description: (§4) HEK293 HiBiT-BRD2 (LgBiT stable), HEK293 HiBiT-BRD3 (LgBiT stable), and HEK293 HiBiT-BRD4 (LgBiT stable) were created using CRISPR/Cas9 to insert at HiBiT tag at the N-terminal genomic loci of BRD2, BRD3, or BRD4 in a cell line stably expressing LgBiT protein as described previously.[23]
(§5) For kinetic degradation experiments, HEK293 HiBiT-BRD2, 3, or 4 (LgBiT stable) cells and HEK293 HiBiT-BRD4 (LgBiT) CRBN KO and VHL KO cells were plated at 20,000 cells/well in DMEM +10% FBS in white 96-well tissue culture plates and allowed to adhere overnight. The next day, media was removed and 90 μL of prewarmed CO2-independent medium (Gibco) containing Endurazine (Promega) at a 1:100 dilution from stock was added. Plates were incubated at 37 °C for 3 h to allow luminescence to equilibrate. A threefold dilution series of each PROTAC at 10x the desired final concentration was prepared (with the amount of DMSO in each treatment condition kept constant). After luminescence equilibration, a preread luminescence measurement was taken (prior to compound addition) to allow for baseline normalization to account for possible plating differences. Cells were then treated with 10 μL of the prepared PROTAC dilution series (in triplicate or quadruplicate). Treated plates were placed in a GloMax Discover luminometer (Promega) prewarmed to 37 °C and luminescence measurements were obtained every 7 min for 24 h. Kinetic degradation plots were obtained by first normalizing time course luminescence readings in each well to the preread measurement, then to the average value of the DMSO only control at each time point. Data was analyzed using GraphPad Prism (version 8) and excel. Dmax values were identified as the lowest luminescence reading in each well. Rate constant values were calculated using a one phase exponential decay Y = (Y0-Plateau) e(K*^X) + Plateau using Prism (Y0 constrained to 1). Dmax 50 values were calculated by plotting Dmax as a function of concentration, then fitting plots using the following equation: [drawing 1] to determine IC50.

CRBN = CRBN (Homo sapiens, UniProt Q96SW2); assay: Western blot dose-response degradation in HEK293 cells; assay type: cell-based; design: Western blot data for BET, CRBN and VHL protein levels; endogenous in cells; host or cells: HEK293 (ATCC); settings: for DC50: HEK293 cells, 6 h, Western blot, mean ± S.E.M. of three experiments, values marked b mean ± S.D. of two
Description: as §1, §2, §3

K562 cells = assay: Cell viability assay (CellTiter-Glo); assay type: cell-based, human; settings: Homo sapiens; WT K562, 5.12 pM to 10 uM, n = 3 (Table S4)
KBM7 cells = assay: Cell viability assay (CellTiter-Glo); assay type: cell-based, human; settings: Homo sapiens, KBM-7; WT KBM7, 5.12 pM to 10 uM, n = 3 (Table S4)
BRD3 [4] = biological target: T2, BRD3; assay: Live cell kinetic HiBiT degradation assay, HiBiT-BRD3 HEK293 cells; assay type: cell-based; settings: for DC50: HiBiT-BRD3 CRISPR knock-in HEK293 cells, live cell kinetic degradation, 24 h, read-out: Dmax 50 BRD3; for λmax BRD3 (degradation rate): HiBiT-BRD3 knock-in HEK293 cells
Description: as §4, §5

Sequence of CRBN (Q96SW2 whole entry): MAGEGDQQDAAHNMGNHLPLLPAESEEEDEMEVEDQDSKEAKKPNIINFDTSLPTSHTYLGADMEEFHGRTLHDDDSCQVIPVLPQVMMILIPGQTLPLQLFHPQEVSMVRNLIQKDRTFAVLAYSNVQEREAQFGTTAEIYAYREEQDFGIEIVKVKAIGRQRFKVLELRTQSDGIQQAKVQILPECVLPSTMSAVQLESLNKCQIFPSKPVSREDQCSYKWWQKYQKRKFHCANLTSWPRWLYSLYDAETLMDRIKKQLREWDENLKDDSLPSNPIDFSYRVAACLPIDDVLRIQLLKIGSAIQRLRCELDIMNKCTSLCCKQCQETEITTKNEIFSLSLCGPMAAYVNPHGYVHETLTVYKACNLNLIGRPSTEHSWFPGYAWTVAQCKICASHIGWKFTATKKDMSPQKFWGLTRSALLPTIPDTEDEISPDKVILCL
T4 sequence (P25440 whole entry): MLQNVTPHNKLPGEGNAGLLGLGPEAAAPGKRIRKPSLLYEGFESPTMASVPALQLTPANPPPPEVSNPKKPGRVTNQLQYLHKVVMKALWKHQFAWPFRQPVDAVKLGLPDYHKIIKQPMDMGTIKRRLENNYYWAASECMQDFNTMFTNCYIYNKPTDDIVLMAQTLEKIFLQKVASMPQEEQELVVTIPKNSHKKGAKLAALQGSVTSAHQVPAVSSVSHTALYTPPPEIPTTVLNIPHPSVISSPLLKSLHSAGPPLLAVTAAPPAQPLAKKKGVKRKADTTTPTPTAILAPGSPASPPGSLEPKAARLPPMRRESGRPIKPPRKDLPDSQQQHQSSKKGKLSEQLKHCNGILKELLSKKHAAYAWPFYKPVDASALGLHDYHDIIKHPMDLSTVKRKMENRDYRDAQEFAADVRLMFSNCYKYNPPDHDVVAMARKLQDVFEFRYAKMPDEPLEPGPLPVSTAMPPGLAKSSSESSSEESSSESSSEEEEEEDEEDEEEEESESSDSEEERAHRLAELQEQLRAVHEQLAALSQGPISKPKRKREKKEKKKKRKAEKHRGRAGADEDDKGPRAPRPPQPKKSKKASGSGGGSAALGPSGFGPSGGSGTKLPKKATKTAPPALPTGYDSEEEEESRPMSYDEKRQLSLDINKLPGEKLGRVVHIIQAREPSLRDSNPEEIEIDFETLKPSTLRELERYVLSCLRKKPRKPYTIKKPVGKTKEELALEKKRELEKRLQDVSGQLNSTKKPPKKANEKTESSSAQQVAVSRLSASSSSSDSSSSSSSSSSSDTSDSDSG
T2 sequence (Q15059 whole entry): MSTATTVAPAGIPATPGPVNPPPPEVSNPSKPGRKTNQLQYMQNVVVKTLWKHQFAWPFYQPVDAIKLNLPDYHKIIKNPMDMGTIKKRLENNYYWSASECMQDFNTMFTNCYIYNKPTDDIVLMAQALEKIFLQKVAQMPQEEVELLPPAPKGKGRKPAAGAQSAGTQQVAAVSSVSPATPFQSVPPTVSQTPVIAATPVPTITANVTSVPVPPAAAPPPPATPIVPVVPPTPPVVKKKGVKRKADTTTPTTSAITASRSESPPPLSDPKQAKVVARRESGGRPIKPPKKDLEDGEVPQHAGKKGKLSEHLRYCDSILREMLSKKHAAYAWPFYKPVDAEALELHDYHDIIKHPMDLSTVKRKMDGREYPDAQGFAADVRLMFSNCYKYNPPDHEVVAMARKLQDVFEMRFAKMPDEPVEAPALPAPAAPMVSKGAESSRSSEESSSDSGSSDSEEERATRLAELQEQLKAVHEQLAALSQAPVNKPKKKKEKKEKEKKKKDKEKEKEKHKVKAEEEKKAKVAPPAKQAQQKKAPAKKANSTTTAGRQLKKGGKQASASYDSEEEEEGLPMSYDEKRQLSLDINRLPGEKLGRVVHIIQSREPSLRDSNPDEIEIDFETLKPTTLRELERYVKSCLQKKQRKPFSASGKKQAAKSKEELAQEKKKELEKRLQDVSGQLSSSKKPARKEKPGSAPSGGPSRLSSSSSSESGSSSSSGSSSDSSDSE

Row | DC50 (BRD4^Short) [nM] | DC50 (BRD3 [1]) [nM] | DC50 (BRD4^Long) [nM] | DC50 (BRD2 [2]) [nM] | DC50 (BRD2 [3]) [nM] | λmax BRD2 (degradation rate) (BRD2 [3]) [h⁻¹] | DC50 (CRBN) [nM] | EC50 (K562 cells) [nM] | DC50 (BRD3 [4]) [nM] | λmax BRD3 (degradation rate) (BRD3 [4]) [h⁻¹] | fold increase in CRBN degradation vs nonmethylated matched pair (CRBN; 27 vs 26, 24 vs 23, DC50, HEK293 Western blot) [fold] | Structure (SMILES) | EC50 (KBM7 cells) [nM]
1 | 3.2 ± 0.9 | 4.8 ± 2.4 | 0.76 ± 0.1 | 14 ± 4.6 | 4.7 | 1.72 | 200 ± 31 | 74.1 | 1.5 | 2.54 |  | Cc1ncsc1-c1ccc(CNC(=O)[C@@H]2C[C@@H](O)CN2C(=O)[C@@H](NC(=O)COCC(C)(COCCOCCOCCNc2cc3c(cc2F)C(=O)N(C2CCC(=O)NC2=O)C3=O)COCCOCCOCCOC(=O)C[C@@H]2N=C(c3ccc(Cl)cc3)c3c(sc(C)c3C)-n3c(C)nnc32)C(C)(C)C)cc1 (mixture of isomers) [AB3063 (26), (17S)-11-((2-(2-(2-((2-(2,6-dioxopiperidin-3-yl)-6-fluoro-1,3-dioxoisoindolin-5-yl)amino)ethoxy)ethoxy)ethoxy)methyl)-17-((2S,4R)-4-hydroxy-2-((4-(4-methylthiazol-5-yl)benzyl)carbamoyl)pyrrolidine-1-carbonyl)-11,18,18-trimethyl-15-oxo-3,6,9,13-tetraoxa-16-azanonadecyl 2-((S)-4-(4-chlorophenyl)-2,3,9-trimethyl-6H-thieno[3,2-f][1,2,4]triazolo[4,3-a][1,4]diazepin-6-yl)acetate] | 21.2
2 | 18 ± 3.3 | 28 ± 0.8 | 12 ± 2.4 | 75 ± 20 | 74 | 1.34 | 480 ± 370 | 369 | 8.1 | 1.69 |  | Cc1ncsc1-c1ccc(CNC(=O)[C@@H]2C[C@@H](O)CN2C(=O)[C@@H](NC(=O)COCC(C)(COCCOCCOCCNc2cccc3c2C(=O)N(C2CCC(=O)NC2=O)C3=O)COCCOCCOC(=O)C[C@@H]2N=C(c3ccc(Cl)cc3)c3c(sc(C)c3C)-n3c(C)nnc32)C(C)(C)C)cc1 (mixture of isomers) [AB3064 (25), (14S)-8-((2-(2-(2-((2-(2,6-dioxopiperidin-3-yl)-1,3-dioxoisoindolin-4-yl)amino)ethoxy)ethoxy)ethoxy)methyl)-14-((2S,4R)-4-hydroxy-2-((4-(4-methylthiazol-5-yl)benzyl)carbamoyl)pyrrolidine-1-carbonyl)-8,15,15-trimethyl-12-oxo-3,6,10-trioxa-13-azahexadecyl 2-((S)-4-(4-chlorophenyl)-2,3,9-trimethyl-6H-thieno[3,2-f][1,2,4]triazolo[4,3-a][1,4]diazepin-6-yl)acetate] | 168
3 | 12 ± 5.8 | 14 ± 7.5 | 10 ± 4.4 | 21 ± 5.4 | 23 | 1.46 | 310 ± 200 | 110 | 1.2 | 2.14 |  | Cc1ncsc1-c1ccc(CNC(=O)[C@@H]2C[C@@H](O)CN2C(=O)[C@@H](NC(=O)COCC(C)(COCCOCCOCCNc2cc3c(cc2F)C(=O)N(C2CCC(=O)NC2=O)C3=O)COCCOCCOC(=O)C[C@@H]2N=C(c3ccc(Cl)cc3)c3c(sc(C)c3C)-n3c(C)nnc32)C(C)(C)C)cc1 (mixture of isomers) [AB3065 (28), (14S)-8-((2-(2-(2-((2-(2,6-dioxopiperidin-3-yl)-6-fluoro-1,3-dioxoisoindolin-5-yl)amino)ethoxy)ethoxy)ethoxy)methyl)-14-((2S,4R)-4-hydroxy-2-((4-(4-methylthiazol-5-yl)benzyl)carbamoyl)pyrrolidine-1-carbonyl)-8,15,15-trimethyl-12-oxo-3,6,10-trioxa-13-azahexadecyl 2-((S)-4-(4-chlorophenyl)-2,3,9-trimethyl-6H-thieno[3,2-f][1,2,4]triazolo[4,3-a][1,4]diazepin-6-yl)acetate] | 39.4
4 | 5.9 ± 2.3 | 8.9 ± 1.5 | 6.8 ± 1.3 | 43 ± 1.1 | 7.3 | 2.04 | 81 ± 11 | 134 |  | 2.66 | ~2.6 | Cc1ncsc1-c1ccc([C@H](C)NC(=O)[C@@H]2C[C@@H](O)CN2C(=O)[C@@H](NC(=O)COCC(C)(COCCOCCOCCNc2cccc3c2C(=O)N(C2CCC(=O)NC2=O)C3=O)COCCOCCOCCOC(=O)C[C@@H]2N=C(c3ccc(Cl)cc3)c3c(sc(C)c3C)-n3c(C)nnc32)C(C)(C)C)cc1 (mixture of isomers) [AB3066 (24), (17S)-11-((2-(2-(2-((2-(2,6-dioxopiperidin-3-yl)-1,3-dioxoisoindolin-4-yl)amino)ethoxy)ethoxy)ethoxy)methyl)-17-((2S,4R)-4-hydroxy-2-(((S)-1-(4-(4-methylthiazol-5-yl)phenyl)ethyl)carbamoyl)pyrrolidine-1-carbonyl)-11,18,18-trimethyl-15-oxo-3,6,9,13-tetraoxa-16-azanonadecyl 2-((S)-4-(4-chlorophenyl)-2,3,9-trimethyl-6H-thieno[3,2-f][1,2,4]triazolo[4,3-a][1,4]diazepin-6-yl)acetate] | 38
